From article PMC10051477, “5,8-Dimethyl-9H-carbazole Derivatives Blocking hTopo I Activity and Actin Dynamics” (Pharmaceuticals, 2023)

Experiments:
hTopo II = molecular target: T1, hTopo II (Homo sapiens, UniProt P11388); test: hTopo II decatenation assay; assay type: biochemical; conditions: compound at 10 μM, kDNA, agarose gel
T1 construct: purchased TopoGEN
Method: Next, we screened all the compounds for their activity against the hTopo II but, in this case, none of the tested compounds have been able to block the decatenation activity at the concentration of […] (Figure 3b, lanes 4 and 5). […] Indeed, two bands related to the DNA decatenation products are present at the bottom of the agarose gel, which denote the enzyme full activity, both in the control (only vehicle, Figure 3b, lane 3) and the tested compound reactions (Figure 3b, lanes 4–7).
Similarly, hTopo II decatenation assays were carried out, as indicated in the manufacturer’s procedures (TopoGEN, Port Orange, FL, USA) with some revisions.
hTopo II decatenation assays were performed in a final volume of 20 μL: 0.3 μg of kinetoplast DNA (kDNA) was added to a solution containing 1× assay buffer (50 mM Tris-HCl, pH of 8, 150 mM NaCl, 10 mM MgCl2, 0.5 mM Dithiothreitol (DTT), 30 μg/mL bovine serum albumin (BSA), 1 mM ATP) and the tested compounds. The mix was incubated for 15 min at 37 °C. Then, the reaction was started by adding 3 U of hTopo II and incubating at 37 °C for 1 h. Then, 5× stop buffer was added and the samples were treated as described in the previous paragraph. The aqueous phase was loaded on a 1% agarose gel containing 1× TAE buffer with EB (0.5 μg/mL) and visualized using an UV transilluminator.

MCF-7 cells = test: MTT assay, MCF-7 cell viability; assay type: cell-based; conditions: Homo sapiens, MCF7, 72 h, mean ± standard deviation
Method: MTT assays (Sigma Aldrich (St.Louis, MO, USA)) were employed to evaluate the in vitro anticancer activities of all the studied compounds, as previously described. The compounds were tested at different concentrations (0.1-1-10-25-50-100 μM) for 72 h. The IC50 values were calculated from the percent (%) of control using GraphPad Prism 9 (GraphPad Software, La Jolla, CA, USA).

[1] = molecular target: T2, F-actin (labeled rabbit muscle actin) (Oryctolagus cuniculus, UniProt P68135); test: In vitro F-actin depolymerization assay; assay type: biochemical; conditions: 5 µM added after 1 h polymerization, monitored 1 h; vehicle 20,000 RFU
T2 construct: fluorescent label (chemical); purchased Abcam; host or cells: rabbit muscle
Method: Moreover, we performed the F-actin depolymerization assay to verify whether compounds 3 and 4 could induce the actin depolymerization as well as the LA does (Figure 5, panel B). For this purpose, we started the actin polymerization for one hour under the same experimental conditions used previously. Then, we added the compounds or the reference molecules at the concentration of 5 µM and monitored the reactions for an additional hour. […] The addition of CB was not able to produce the same effect of LA. […] Contrarily, both the compounds were able to induce an important depolymerizing effect on the F-actin, most evident in the first 7 min after the exposure. Particularly, compounds 3 and 4 produced final values of approximately 14,000 and 12,000 RFU, respectively. […] This combined effect leads to a disorganization of the intracellular actin network.
An Actin Polymerization/Depolymerization Assay Kit, purchased from Abcam, was employed to assess the ability of compounds 3 and 4 to interfere with the actin polymerization and depolymerization processes. To perform the essays, the manufacturer’s instructions were followed with some modifications. In particular, polymerization assay was carried out incubating in a white 96-well plate the reconstituted actin with supplemented Buffer G, compounds 3 and 4 and then Buffer P was added in order to induce actin polymerization. For the Actin Depolymerization Assay, the actin polymerization was first induced, incubating supplemented Buffers P and G at room temperature for one hour. Then, compounds 3 and 4 were added at a concentration of 5 μM. Latrunculin A (LA) and Cytochalasin B (CB) were utilized as positive control at a concentration of 5 μM. For both the assays, the assemblage of the actin filaments was defined by measuring the fluorescence (Ex/Em: 365/410 nm) in kinetic mode for 1 h at room temperature in a microplate reader.

T1 sequence (P11388 whole entry): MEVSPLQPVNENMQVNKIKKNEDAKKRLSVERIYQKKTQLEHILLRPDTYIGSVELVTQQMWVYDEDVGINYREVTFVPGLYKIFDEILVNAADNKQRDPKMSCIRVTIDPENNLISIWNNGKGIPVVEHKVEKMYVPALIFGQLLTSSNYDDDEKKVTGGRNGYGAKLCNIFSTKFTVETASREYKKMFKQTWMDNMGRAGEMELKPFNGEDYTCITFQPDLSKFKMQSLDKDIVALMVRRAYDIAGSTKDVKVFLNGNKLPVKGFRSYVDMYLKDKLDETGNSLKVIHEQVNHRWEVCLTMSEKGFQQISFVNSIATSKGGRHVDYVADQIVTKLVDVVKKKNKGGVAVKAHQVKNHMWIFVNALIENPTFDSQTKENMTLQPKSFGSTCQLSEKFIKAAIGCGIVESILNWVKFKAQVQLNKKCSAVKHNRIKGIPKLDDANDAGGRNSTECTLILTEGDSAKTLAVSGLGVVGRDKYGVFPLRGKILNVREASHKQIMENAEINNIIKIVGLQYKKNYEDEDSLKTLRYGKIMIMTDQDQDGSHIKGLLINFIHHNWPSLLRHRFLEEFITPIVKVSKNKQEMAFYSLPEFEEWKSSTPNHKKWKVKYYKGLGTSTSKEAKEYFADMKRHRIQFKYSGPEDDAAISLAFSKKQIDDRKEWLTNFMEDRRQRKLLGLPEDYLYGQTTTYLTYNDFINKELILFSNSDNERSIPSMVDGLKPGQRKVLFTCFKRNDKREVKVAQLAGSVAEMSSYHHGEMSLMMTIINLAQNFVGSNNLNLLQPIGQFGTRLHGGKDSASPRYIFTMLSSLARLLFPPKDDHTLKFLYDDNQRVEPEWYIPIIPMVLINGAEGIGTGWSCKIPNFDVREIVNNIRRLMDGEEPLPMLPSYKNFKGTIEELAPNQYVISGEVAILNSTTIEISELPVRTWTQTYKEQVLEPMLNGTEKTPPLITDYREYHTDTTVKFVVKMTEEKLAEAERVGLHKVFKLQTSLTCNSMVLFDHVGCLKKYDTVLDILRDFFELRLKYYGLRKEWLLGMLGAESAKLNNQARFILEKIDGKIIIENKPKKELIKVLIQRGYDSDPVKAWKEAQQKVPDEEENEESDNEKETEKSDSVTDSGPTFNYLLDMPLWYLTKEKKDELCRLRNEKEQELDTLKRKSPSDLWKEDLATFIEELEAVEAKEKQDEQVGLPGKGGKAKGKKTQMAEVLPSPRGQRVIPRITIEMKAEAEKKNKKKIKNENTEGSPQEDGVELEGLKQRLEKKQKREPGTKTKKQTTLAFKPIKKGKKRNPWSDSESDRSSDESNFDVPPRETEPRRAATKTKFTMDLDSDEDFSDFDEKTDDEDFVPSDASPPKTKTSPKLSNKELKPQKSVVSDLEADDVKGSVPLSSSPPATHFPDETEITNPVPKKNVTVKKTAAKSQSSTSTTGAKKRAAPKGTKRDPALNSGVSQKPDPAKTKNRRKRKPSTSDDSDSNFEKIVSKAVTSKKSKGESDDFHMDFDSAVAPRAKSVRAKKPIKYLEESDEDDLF

| SMILES | Inhibition of hTopo II decatenation activity (hTopo II) | IC50 (MCF-7 cells) | F-actin depolymerization, final fluorescence value of reaction curve [1] |
| --- | --- | --- | --- |
| Cc1ccc(C)c2c1c1cc(B(O)O)ccc1n2C(=O)OC(C)(C)C [Compound 3] | no inhibitory activity | 27.6 ± 0.71 µM | approximately 14,000 RFU |
| Cc1ccc(C)c2c1c1cc(O)ccc1n2C(=O)OC(C)(C)C [Compound 4] | no inhibitory activity | 19.8 ± 1.12 µM | ~12,000 RFU |
